Data published in US20070248944A1, “Preventive and Remedy for Collagen or Elastin Metabolic Disorder” (YAMAGUCHI UNIVERSITY, priority 2004, published 2007).

Assays:
[1] = tested on: abdominal aortic aneurysm model (angiotensin II-infused apoE knockout mice); test: Aneurysm therapy and regression in apoE knockout mouse aneurysm model; format: in vivo; settings: 8 weeks of injection; control group 0% ±13%; p<0.05
Description: After completion of 4 weeks of angiotensin II infusion, the lumen diameter of each abdominal aortic aneurysm was measured using ultrasonic diagnostic equipment. The mice were evenly divided into 2 groups based on the measured values. Immediately after grouping, daily subcutaneous injection of the […] inhibitor SP600125 (SP group) or a solution alone (control group) was initiated. The method employed herein for administration of SP600125 and the solution was similar to that in Example 1 above. On week 8 after the initiation of injection, the aneurysm diameter of each abdominal aortic aneurysm was measured again using ultrasonic diagnostic equipment.

[2] = tested on: abdominal aortic aneurysm model (angiotensin II-infused apoE knockout mice); test: JNK inhibition experiment using an apoE knockout mouse aneurysm model (angiotensin II infusion, prevention); format: in vivo; settings: by week 5 after initiation of angiotensin II infusion; control group 6.25%
Description: An abdominal aortic aneurysm model was generated through continuous administration of angiotensin II to apolipoprotein E (apo E) knockout mice according to Daugherty et al's method (J. Clin. Invest. 105: 1605-1612 (2000)). Specifically, mini-osmotic pump (Alzet) was implanted into 24-week-old apoE knockout male mice and angiotensin II (1 μg/min/kg) was continuously infused. These model mice were affected with hyperlipidemia, hypertension, and marked aortic arteriosclerosis. As a result of 4 weeks of angiotensin II infusion, aneurysm formation was observed mainly in the suprarenal abdominal aorta of these mice. Some of these mice died due to aneurysmal rupture. […] Simultaneously with the initiation of continuous infusion of angiotensin II, daily subcutaneous injection of a JNK inhibitor SP600125 (SP group: 8 mice) or a solution (control group: 16 mice) without JNK inhibitor was initiated. The method employed herein for administration of SP600125 was similar to that in Example 1 above. On week 4, the maximum diameter of each abdominal aorta was measured using ultrasonic diagnostic equipment.

[3] = tested on: lysyl oxidase; test: Lysyl oxidase mRNA expression in serum-deficient vascular smooth muscle cells, real time PCR; format: cell-based, rat; design: dose or concentration left out as unconfirmed; settings: serum-deficiency stress; day 6; p<0.01
Description: An experiment was conducted using a vascular smooth muscle cell primary culture system isolated from a rat aorta. Serum deficiency state was created at the initiation of the experiment. JNK of cultured cells was activated by serum-deficiency stress. Immediately after the initiation of the experiment, a JNK inhibitor peptide (D-JNKI1, 5 mM, ALEXIS) was administered. D-TAT (5 mM, ALEXIS) was used as a control peptide. On day 6 after peptide administration, the cells were harvested. Lysyl oxidase expression was subjected to quantitative analysis at the mRNA level using the real time PCR method. Lysyl oxidase (LOX) is an enzyme essential for the maturation of collagen fiber or elastin fiber. Decreased level of LOX indicates lowered ability to synthesize collagen or elastin.

[4] = tested on: vascular smooth muscle cells isolated from a rat aorta; test: Collagen synthesis (3H-labeled proline, collagenase-sensitive fraction) in vascular smooth muscle cell primary culture; format: cell-based; design: dose or concentration left out as unconfirmed; settings: 72 hours; serum-free media; p<0.01
Description: An experiment was conducted using a vascular smooth muscle cell primary culture system isolated from a rat aorta. Among newly-synthesized proteins into which 3H-labeled proline had been incorporated, fractions that are specifically degraded by collagen degrading enzymes were subjected to quantitative analysis according to Kidwell et al's method (Methods in Enzymology, 147: 407-414 (1987)). 3H-labeled proline (3 μCi/ml) was added to serum-free media to initiate culture. Immediately after culture initiation, a JNK inhibitor peptide (D-JNK1, 0, 1, 2, and 5 mM, ALEXIS) was administered. At 72 hours after peptide administration, proteins in the culture supernatants were collected. Furthermore, only fractions that had been solubilized by collagen degrading enzymes were collected. 3H-labeled proline that had been incorporated for novel collagen synthesis was measured using a scintillation counter.

[5] = tested on: human abdominal aortic aneurysmal wall tissue; test: 3H-labeled proline incorporation in human aneurysmal wall culture system; format: cell-based; settings: 5 mM peptide; TNF-α 100 ng/ml; 48 hours; p<0.05
Description: Aneurysmal wall tissue excised at the time of operation of human abdominal aortic aneurysms was chopped and then cultured. The ability of aneurysmal wall to newly synthesize collagen was analyzed using 3H-labeled proline that is abundantly contained in collagen according to the Kidwell et al's method (Methods in Enzymology 147: 407-414 (1987)). Specifically, 3H-labeled proline (3 μCi/ml) was added to media to initiate culture. Immediately after culture initiation, a JNK inhibitor peptide (D-JNKI1, 5 mM, ALEXIS) was administered. D-TAT (5 mM, ALEXIS) was used as a control peptide. At 12 hours after peptide administration, stimulation was performed with TNF-α (R&D Systems, 100 ng/ml) TNF-α is an inflammatory cytokine that is increased in human aortic aneurysms and is known to activate JNK. 48 hours later, proteins in the culture supernatants were collected. 3H-labeled proline that had been incorporated for novel synthesis was measured using a scintillation counter.

[6] = tested on: MMP-9; test: MMP-9 secretion in TNF-α-stimulated THP-1 cells, gelatin zymography; format: cell-based, human; settings: 0, 1, 2, and 5 μM peptide, TNF-α 50 ng/ml, 48 hours
Description: To verify the effects of a JNK inhibitor peptide, an experiment was conducted using MMP-9 as an index, which is thought to be important in the pathogenesis of aneurysms, in a cultured cell system. Cells used herein were macrophage cells (THP-1) mainly expressing MMP-9 in human aneurysms. Specifically, a JNK inhibitor peptide D-JNKI1 (ALEXIS) was administered at various concentrations (0, 1, 2, and 5 μM D-JNKI1) in advance to cultured THP-1 cells. D-TAT (ALEXIS) was used as a control peptide. At 24 hours after peptide administration. the cells were stimulated with TNF-α (50 ng/ml), an inflammatory cytokine. 48 hours later, culture solutions were collected and then the amounts of MMP-9 secreted in the culture solutions were subjected to quantitative analysis by the gelatin zymography method.

Compound	Reduction percentage of aneurysm diameter (before vs after injection) [1]	Cumulative survival rate [2]	Lysyl oxidase expression level (mRNA) [3]	Ability to synthesize collagen [4]	3H-labeled proline incorporation decreased by TNF-α [5]	MMP-9 secretion due to TNF-α [6]
Oc1c2ccccc2c2c3c(cccc13)N=N2 [SP600125, Anthra[1-9-cd]pyrazol-6(2H)-one]	17% ±10%	87.5%				
c-Jun N-terminal Kinase Peptide Inhibitor 1, D-stereoisomer [D-JNKI1]			inhibited a decrease in lysyl oxidase expression level	1.6±0.1 times	significantly restored	suppressed MMP-9 secretion due to TNF-α in a concentration-dependent manner
